The values below come from patent US9308210B2, “Method for modulating canonical Wnt pathway using folate and inositol” (University of South Florida, priority 2009, dated 2016).

For series [1], the system named is Hex and Islet-1 (Isl1) gene expression. The series can be described thus: In situ hybridization of Hex and Isl1 in avian heart fields after Li, HCy or Wnt3A with or without FA. The class given is in vivo, chick. Particulars: 8 hours of exposure; HH stages 3+/4. As to the method: In situ hybridizations on control and experimentally manipulated chick embryos were carried out using digoxigenin-labeled riboprobes with alkaline phosphatase detection (Linask et al., 2001). Images of whole-mounted chick embryos were taken with a Nikon DS-L2 camera unit. Probes for chick Hex were provided by Parker Antin, University of Arizona and probes for chick Islet-1 (Isl1) were provided by Thomas Jessell, Columbia University, NY.
Chick embryos (HH stages 3+/4) were incubated on agarose albumin supplemented with HCy (50 μM). Instead of giving a single injection in ovo, embryos were exposed to HCy for 8 hours in order to define the effect on early cardiac gene expression. Another group of embryos were exposed to HCy for 24 hours at which time the effects on gene expression were determined. To analyze the effects during the looping stages, incubation was stopped after between 22 and 24 hours. After the 8-hour incubation, Li and HCy suppressed Hex and Isl1 expression in the cardiogenic crescent (FIG. 5).
The inventors next analyzed whether FA rescues the downregulation of Hex and Isl1. Chick embryos were exposed to Li, HCy or Wnt3A, as above, with and without 10 μg/ml of FA; the experiments were terminated after either an 8-hour or 24-hour exposure period, at which time in situ hybridizations for gene expression were performed. After 8 hours of exposure, Li, HCy and Wnt3A all suppressed Hex (FIGS. 9D, G, J) and Isl1 (FIGS. 10D, G, J) compared with the control embryonic expression patterns (FIG. 9A; FIG. 10A). […] Thus, FA supplementation suppressed the potentiation of the inhibitory Wnt signaling, allowing for normal induction of Hex and Isl1 gene expression.

The next series has as its system chick embryos. The series can be described thus: Early embryonic chick culture: heart development (MF20) after HCy, Li or Wnt3A exposure, FA/inositol rescue. The series is classed as in vivo, chick (Gallus gallus). As to the method: Pathogen-free White Leghorn chick (Gallus gallus; Charles River, Mass.) and quail (Coturnix coturnix japonica; Strickland Farms, Ga.) embryos were used to analyze the effects of HCy on early embryogenesis. The early processes of heart development are well conserved among vertebrates and the avian model allows for more precise timing of exposure in early embryos. The incubation methodology using agarose-albumin has been described previously (Darnell and Schoenwolf, 2000). Briefly, the experimental paradigm involved exposing specific early stages of chick embryos, at HH stages 4 to 7 (Hamburger and Hamilton, 1951), to different concentrations of HCy (L-homocysteine thiolactone hydrochloride, Sigma) made up in physiological saline. Final concentrations of HCy included 30 μM, 50 μM, 75 μM and 100 μM. The minimal teratogenic dose was determined empirically to be 50 μM. This fit within the concentration range of 30 μM to 300 μM used by others that induced heart defects at later stages of development (Boot et al., 2004). Control embryos were incubated using the vehicle, physiological saline, in the agarose-albumin medium. Control and experimental cultures were incubated on the agarose-albumin plates for either 8 or 24 hours.
Carrier-free, recombinant mouse Wnt3A was purchased from R&D Systems (Minneapolis, Minn.). Wnt3A concentrations were empirically tested to find those that would induce cardiac defects but maintain embryonic viability. Wnt3A was tested at concentrations of 2 ng, 10 ng, 20 ng, 50 ng and 100 ng per ml. Concentrations of 2 ng/ml and 10 ng/ml were both effective in inducing cardiac defects. Both Wnt3A concentrations were used in the FA rescue experiments, as described. For the FA rescue experiments, folate (folic acid, Sigma-Aldrich) was added at a concentration of 2 μg, 5 μg or 10 μg per ml. […] For the experiments using inositol (myo-inositol, Sigma) supplementation, a concentration of 50 mg/ml was used.
The main embryonic defects related to the timing of embryonic exposure; the regions that were primarily affected related to an anterior-to posterior (AP) wave of development along this embryonic axis. The exposure effects ranged from early effects (e.g. no cardiac tissue, heart development occurring anterior to neural tissue, cardiabifida) to later effects, such as wide hearts and left looping (Table 1). The cardiac phenotypes observed with early HCy exposure were similar, although not identical, to those obtained from previous studies of Li exposure on avian heart development (Manisastry et al., 2006). The Wnt/β-catenin modulated genes Hex and Isl1 in the chick embryo also were similarly repressed with HCy, as with Li in the chick cardiogenic region. […] Investigation of regulatory gene activity in chick embryos indicates Li, HCy and Wnt3A suppress Wnt-modulated genes Hex and Islet-1 in the heart fields.
To define the effective dose of Wnt3A needed to induce cardiac dysmorphogenesis, Wnt3A was tested at concentrations of 2 ng, 10 ng, 20 ng, 50 ng, and 100 ng per ml. The minimal effective doses of Wnt3A that induced cardiac and neural anomalies were 2 ng/ml and 10 ng/ml, respectively. Using these concentrations, the inventors analyzed whether FA supplementation of media at 10^3-fold higher concentrations, that is 2 μg/ml or 10 μg/ml, would provide protection against the augmentation of canonical Wnt3A signaling.

Series [2] relates to C57BL/6 mouse embryos. The series can be described thus: Morphometric parameters and resorptions of E15.5 mouse embryos with ethanol exposure and FA diet. The series is classed as in vivo. The text has this:
The C57Bl/6 mouse strain (Jackson Laboratories) was used.

Series [3] has as its system C57BL/6 mouse embryos. Particulars: in vivo.
Another series concerns Hex and Isl-1 expression. The series can be described thus: In situ hybridization of Hex and Isl-1 in avian embryos after EtOH exposure with or without FA. The class given is in vivo, avian (chick). Particulars: 30% EtOH; HH stage 4; 8 hour incubation.
The next series concerns HTR-8/SVneo cells. Description: In vitro wound assay of human trophoblast cell migration. The series is classed as cell-based. Particulars: HCy exposure experiments; scrape wound. An excerpt: In previous studies by the inventors analyzing the effects of lithium and the metabolite homocysteine (HCy) on early heart development, the results were similar. Both factors inhibited Wnt/β-catenin-mediated gene expression during induction stages of cardiogenesis. […] Folate protects the embryo from these adverse effects (Han et al., 2009). It was also noted that normal placental development was adversely affected by Li and HCy. A human trophoblast cell line, HTR-8/SVneo cells, was used to determine whether Li or HCy affect the migration of these cells in vitro and whether FA or FA/myo-inositol would protect the cells from adverse effects of the two cardiac teratogens. HCy exposure experiments were conducted. […] The wound edges are depicted by a white line in B. In panel A, it can be seen that the wound area is smaller. Administration of a combination of FA/myo-inositol, FA alone or myo-inositol alone, enhanced the expression of NMHC-IIB and FN to facilitate cell migration.

[4] abbreviates: 30% EtOH 2.9 g/Kg twice i.p. on E6.75.
The mark [5] stands for this setting: 30% EtOH 3.5 g/Kg once i.p. on E6.75.
[6] abbreviates: HH stage 3 +/4, HCy 50 μM, Li 50 μM, FA 10 μM, inositol 280 mM.

On to Wnt3A, for which the “Hex and Isl1 expression in the cardiogenic crescent” value in series [1] is listed as “suppressed”. The “embryos with normal hearts / normal heart development” value with chick embryos (Wnt3A exposure at HH stages 3+/4, Wnt 2 ng, FA 10 μg) is given as 18%. In addition, in the series on chick embryos (in vivo), the “minimal effective dose that induced cardiac anomalies” value turned out to be 2 ng/mL and the “minimal effective dose that induced neural anomalies” value is 10 ng/mL.
With `CCO` [EtOH, ethanol], in the series with C57BL/6 mouse embryos [2] (setting [4]), the “Body Weight” value worked out at 0.37 g, the CRL worked out at 12.63 min and the “Placenta Weight” value is reported as 0.10 g. Besides, in the series on C57BL/6 mouse embryos [2] (setting [5]), the “Body Weight” value was found to be 0.35 g, the CRL stood at 11.40 min and the “Placenta Weight” value amounted to 0.09 g. In the series on avian embryos (25% and 30% EtOH, stage 4), the “embryos with cardiac valve anomalies” value is 68%. Besides, the “embryos with normal heart development” value in the series with avian embryos (25% and 30% EtOH, stage 4, FA (10 mg/ml) concurrently, in vitro and in ovo) amounted to 32%. In the series with avian embryos (EtOH in vitro at HH stage 4), the morphological defects result was “delayed growth and severe cardiac malformations”. Also, the “effects of 10% EtOH in ovo” value in the series on avian embryos (quail eggs stage 4, microinjected into airspace) is given as “no adverse effects”. For the same compound, the “teratogenic EtOH dose” value in the series on avian embryos (stage 4 avian embryos) is on record as 25-30%. Also, in the series with C57BL/6 mouse embryos [3], the DAPI is 1.73, the DVPI turned out to be 1.21, the “E/A Ratio” value was found to be 0.29 and the HR came to 205 bpm. Besides, in the series with C57BL/6 mouse embryos [3], the ICT % was 10.09%, the IRT % is on record as 14.93%, the MPI is on record as 0.62 and the OF worked out at 26.37 cm/s. Besides, in the series with C57BL/6 mouse embryos [3], the RR was found to be 293 ms and the UAPI worked out at 1.75. Moreover, in the series with C57BL/6 mouse embryos [3] (ip), the “abnormalities after one i.p. injection of 3.5 g/kg” value was “did not produce any abnormalities” and the “outcome after one i.p. injection of 4.5 g/kg” value was “cardiac abnormalities, but the pregnant mouse appeared sickly”. In the series with Hex and Isl-1 expression, the “Hex and Isl-1 expression in the heart fields” value is reported as “suppressed”.
For `O[C@H]1[C@H](O)[C@@H](O)[C@H](O)[C@@H](O)[C@H]1O` [Inositol, myo-inositol], the “expression of NMHC-IIB and FN” value with HTR-8/SVneo cells is on record as “enhanced”. Moreover, in the series with chick embryos (setting [6]), the “% Normal Hearts” value stood at 60%, the “Abnormal (number of embryos)” value was found to be 2 and the “Normal (number of embryos)” value is 3. The “% Normal Hearts” value in the series on chick embryos (HH stage 3 +/4, HCy 50 μM, Li 50 μM, FA 10 μM, inositol 280 mM, listed as Inositol only) is 60%.
